Experimental data from patent US7825141B2, “Epothilone derivatives” (Novartis AG, priority 2004, dated 2010).
Where “and” joins values, the source holds several entries; their conditions need not be identical. Equal values may be shown once.

Key:
[1] = system: (multidrug-resistant, P-gp 170 overexpressing) KB-8511 epidermoid carcinoma cells; test: Proliferation inhibition of KB-8511 cells (methylene blue staining); format: cell-based, human; settings: KB-8511 cell line (multidrug-resistant, P-gp 170 overexpressing), four days incubation with compound, repeated lines are separate determinations
Description: (§1) Stock solutions of the test compound of formula I 10 mM) in DMSO are prepared and stored at −20° C. Human KB-31 and (multidrug-resistant, P-gp 170 overexpressing) KB-8511 epidermoid carcinoma cells are from Dr. M. Baker, Roswell Park Memorial Institute (Buffalo, N.Y., USA) (for description see also Akiyama et al., Somat. Cell. Mol. Genetics 11, 117-126 (1985) und Fojo A., et al., Cancer Res. 45, 3002-3007 (1985)—KB-31 und KB-851 I both are derivatives of the KB-cell line (American Type Culture Collection) and are human epidermoid carcinoma cells. KB-31 cells can be cultivated in mono-layers using calf serum (M.A. Bio-products), L-glutamine (Flow), penicillin (50 Units/ml) und streptomycin (50 μg/ml (Flow); they then grow with a doubling rate of about 22 hours, and the relative efficiency of plating them out lies at about 60%. […] The cells are incubated at 37° C. in an incubator with 5% V/V CO2 and at 80% relative atmospheric humidity in MEM Alpha-medium which contains ribonucleosides und desoxyribonucleosides (Gibco BRL), complemented with 10 IU Penicillin, 10 μg/ml Streptomycin and 5% fetal calf serum. The cells are spread in an amount of 1.5×10^3 cells/well in 96-well-microtiter plates and incubated overnight. Serial dilutions of the test compounds in culture medium are added at day 1. The plates are then incubated for an additional period of four days, after which the cells are fixed using 3.3% v/v glutaraldehyde washed with water and finally stained with 0.05% w/v methylene blue. After washing again, the stain is eluted with 3% HCl and the optical density at 665 nm is measured with a SpectraMax 340 (Molecular Devices, Sunnyvale, Calif.). IC50-values are determined by mathematically fitting the data to curves using the SoftPro2.0 program (Molecular Devices, Sunnyvale, Calif.) and the formula […]/[(OD control)−(OD start)]×100.
(§2) The IC50 is defined as the concentration of a test compound at the end of the incubation period that leads to 50% of the number of cells in comparison to controls without test compound (concentration at halfmaximal inhibition of cell growth).
(§3) Proliferation inhibition (IC50) of epothilone derivatives (Examples 1-16) towards KB-31 and KB-8511 cell lines. Method as described above.

[2] = system: Human KB-31 epidermoid carcinoma cells; test: Proliferation inhibition of KB-31 cells (methylene blue staining); format: cell-based; settings: KB-31 cell line, four days incubation with compound, repeated lines are separate determinations
Description: as §1, §2, §3

Which IC50 ([1]; Homo sapiens, 96 h) does the source give for `Cc1nc2cc([C@@H]3C/C=C\CCC[C@H](C)[C@H](O)[C@@H](C)C(=O)C(C)(C)CCC(=O)O3)ccc2n1C` [Example 3, 16-(1,2-Dimethyl-1H-benzoimidazol-5-yl)-8-hydroxy-5,5,7,9-tetramethyl-oxacyclohexadec-13-ene-2,6-dione] here?
The IC50 was 0.0504 µM.

And the IC50 [1]?
Its IC50 is 0.0623 µM.

What about the IC50 ([2]; Homo sapiens, KB 3-1, 96 h) of the same molecule?
Its IC50 is 0.0549 µM.

What about the IC50 [2] of the same molecule?
The IC50 was 0.062 µM.

With `Cc1nc2cc([C@@H]3C[C@@H]4O[C@@H]4CCC[C@H](C)[C@H](O)[C@@H](C)C(=O)C(C)(C)CCC(=O)O3)ccc2n1C` [Example 4, 3-(1,2-Dimethyl-1H-benzoimidazol-5-yl)-11-hydroxy-8,8,10,12-tetramethyl-4,17-dioxa-bicyclo[14.1.0]heptadecane-5,9-dione] as the molecule, how does the IC50 ([1]; Homo sapiens, 96 h) read?
Its IC50 is 0.0366 µM.

And the IC50 [1]?
The IC50 was 0.0392 µM and 0.0371 µM.

What about the IC50 ([2]; Homo sapiens, KB 3-1, 96 h) of the same molecule?
Its IC50 is 0.00656 µM.

And the IC50 [2]?
The IC50 was 0.00795 µM and 0.00765 µM.

For `C/C(=C\c1csc(C)n1)[C@@H]1C[C@@H]2O[C@]2(C)CCC[C@H](C)[C@H](O)[C@@H](C)C(=O)C(C)(C)CCC(=O)O1` [Example 2, (1S,3S,10R,11S,12S,16R)-11-Hydroxy-8,8,10,12,16-pentamethyl-3-[(E)-1-methyl-2-(2-methyl-thiazol-4-yl)-vinyl]-4,17-dioxa-bicyclo[14.1.0]heptadecane-5,9-dione], which IC50 ([1]; Homo sapiens, 96 h) is on record?
Its IC50 is 0.00218 µM.

What about the IC50 ([2]; Homo sapiens, KB 3-1, 96 h) of the same molecule?
The IC50 was 0.00512 µM.

For `Cc1nc2cc([C@@H]3C[C@@H]4C[C@@H]4CCC[C@H](C)[C@H](O)[C@@H](C)C(=O)C(C)(C)[C@@H](O)CC(=O)O3)ccc2n1C` (stereo in doubt) [Example 15, 3-(1,2-Dimethyl-1H-benzoimidazol-5-yl)-7,11-dihydroxy-8,8,10,12-tetramethyl-4-oxa-bicyclo[14.1.0]heptadecane-5,9-dione], which IC50 ([1]; Homo sapiens, 96 h) is on record?
The IC50 was 0.00101 µM.

And the IC50 ([2]; Homo sapiens, KB 3-1, 96 h)?
Its IC50 is 0.000467 µM.

Which IC50 ([1]; Homo sapiens, 96 h) does the source give for `Cc1nc2cc([C@@H]3C[C@@H]4O[C@H]4CCC[C@H](C)[C@H](O)[C@@H](C)C(=O)C(C)(C)/C=C/C(=O)O3)ccc2n1C` [Example 14, (E)-(1S,3S,10R,11S,12S,16S)-3-(1,2-Dimethyl-1H-benzoimidazol-5-yl)-11-hydroxy-8,8,10,12-tetramethyl-4,17-dioxa-bicyclo[14.1.0]heptadec-6-ene-5,9-dione] here?
The IC50 was 0.0124 µM.

And the IC50 [1]?
Its IC50 is 0.00992 µM.

What about the IC50 ([2]; Homo sapiens, KB 3-1, 96 h) of the same molecule?
The IC50 was 0.005 µM.

And the IC50 [2]?
The IC50 was 0.0035 µM.

How did the IC50 ([1]; Homo sapiens, 96 h) turn out when `Cc1nc2cc([C@@H]3C/C=C/CCC[C@H](C)[C@H](O)[C@@H](C)C(=O)C(C)(C)/C=C/C(=O)O3)ccc2n1C` [Example 13, (3E,13E)-(7R,8S,9S,16S)-16-(1,2-Dimethyl-1H-benzoimidazol-5-yl)-8-hydroxy-5,5,7,9-tetramethyl-oxacyclohexadeca-3,13-diene-2,6-dione] was run?
Its IC50 is 0.0741 µM.

What about the IC50 [1] of the same molecule?
Its IC50 is 0.0688 µM and 0.0735 µM.

What about the IC50 ([2]; Homo sapiens, KB 3-1, 96 h) of the same molecule?
Its IC50 is 0.144 µM.

And the IC50 [2]?
Its IC50 is 0.138 µM and 0.152 µM.

For `Cc1nc2cc([C@@H]3C/C=C/CCC[C@H](C)[C@H](O)[C@@H](C)C(=O)C(C)(C)CCC(=O)O3)ccc2n1C` [Example 7, (E)-(7R,8S,9S,16S)-16-(1,2-Dimethyl-1H-benzoimidazol-5-yl)-8-hydroxy-5,5,7,9-tetramethyl-oxacyclohexadec-13-ene-2,6-dione], which IC50 ([1]; Homo sapiens, 96 h) is on record?
Its IC50 is 0.0502 µM.

And the IC50 [1]?
Its IC50 is 0.0499 µM.

And the IC50 ([2]; Homo sapiens, KB 3-1, 96 h)?
Its IC50 is 0.0391 µM.

And the IC50 [2]?
The IC50 was 0.0419 µM.

With `Cc1nc2cc([C@@H]3C/C=C/CCC[C@H](C)[C@H](O)[C@@H](C)C(=O)C(C)(C)[C@@H](O)CC(=O)O3)ccc2n1C` [Example 11, (E)-(4S,7R,8S,9S,16S)-16-(1,2-Dimethyl-1H-benzoimidazol-5-yl)-4,8-dihydroxy-5,5,7,9-tetramethyl-oxacyclohexadec-13-ene-2,6-dione] as the molecule, how does the IC50 ([1]; Homo sapiens, 96 h) read?
The IC50 was 0.0251 µM.

And the IC50 [1]?
The IC50 was 0.0366 µM and 0.037 µM.

Which IC50 ([1]; Homo sapiens, 96 h) does the source give for `C/C1=C/C[C@@H](/C(C)=C/c2csc(C)n2)OC(=O)CCC(C)(C)C(=O)[C@H](C)[C@@H](O)[C@@H](C)CCC1` [Example 1, (Z)-(7R,8S,9S,16S)-8-Hydroxy-5,5,7,9,13-pentamethyl-16-[(E)-1-methyl-2-(2-methyl-thiazol-4-yl)-vinyl]-oxacyclohexadec-13-ene-2,6-dione] here?
Its IC50 is 0.0754 µM.

And the IC50 ([2]; Homo sapiens, KB 3-1, 96 h)?
The IC50 was 0.106 µM.

What does the source list for `Cc1nc2cc([C@@H]3C[C@@H]4O[C@H]4CCC[C@H](C)[C@H](O)[C@@H](C)C(=O)C(C)(C)[C@@H](O)CC(=O)O3)ccc2n1C` [Example 12, (1S,3S,7S,10R,11S,12S,16S)-3-(1,2-Dimethyl-1H-benzoimidazol-5-yl)-7,11-dihydroxy-8,8,10,12-tetramethyl-4,17-dioxa-bicyclo[14.1.0]heptadecane-5,9-dione]?
IC50 ([1]; Homo sapiens, 96 h): 0.00145 µM; IC50 [1]: 0.00167 µM and 0.00096 µM; IC50 ([2]; Homo sapiens, KB 3-1, 96 h): 0.00027 µM; IC50 [2]: 0.00024 µM and 0.000228 µM

Which IC50 ([1]; Homo sapiens, 96 h) does the source give for `Cc1nc2cc([C@@H]3C[C@@H]4O[C@H]4CCC[C@H](C)[C@H](O)[C@@H](C)C(=O)C(C)(C)CCC(=O)O3)ccc2n1C` [Example 8, (1S,3S,10R,11S,12S,16S)-3-(1,2-Dimethyl-1H-benzoimidazol-5-yl)-11-hydroxy-8,8,10,12-tetramethyl-4,17-dioxa-bicyclo[14.1.0]heptadecane-5,9-dione] here?
Its IC50 is 0.00583 µM.

What about the IC50 ([2]; Homo sapiens, KB 3-1, 96 h) of the same molecule?
The IC50 was 0.00276 µM.

`Cc1nc2cc([C@@H]3C[C@@H]4C[C@H]4CCC[C@H](C)[C@H](O)[C@@H](C)C(=O)C(C)(C)[C@@H](O)CC(=O)O3)ccc2n1C` [Example 16, (1S,3S,7S,10R,11S,12S,16R)-3-(1,2-Dimethyl-1H-benzoimidazol-5-yl)-7,11-dihydroxy-8,8,10,12-tetramethyl-4-oxa-bicyclo[14.1.0]heptadecane-5,9-dione] was tested. Which IC50 ([1]; Homo sapiens, 96 h) did it give?
The IC50 was 0.00011 µM.

And the IC50 ([2]; Homo sapiens, KB 3-1, 96 h)?
The IC50 was 0.000149 µM.

What does the source list for `Cc1nc2cc([C@@H]3C[C@@H]4O[C@]4(C)CCC[C@H](C)[C@H](O)[C@@H](C)C(=O)C(C)(C)CCC(=O)O3)ccc2n1C` [Example 6, (1S,3S,10R,11S,12S,16R)-3-(1,2-Dimethyl-1H-benzoimidazol-5-yl)-11-hydroxy-8,8,10,12,16-pentamethyl-4,17-dioxa-bicyclo[14.1.0]heptadecane-5,9-dione]?
IC50 ([1]; Homo sapiens, 96 h): < 0.002 µM; IC50 [1]: 0.00161 µM
